Laboratory results from US20080051420A1, “New Compounds 317” (AstraZeneca AB, priority 2006, published 2008).

molecular target: T1, human β-secretase (Homo sapiens, UniProt P56817); experiment: TR-FRET assay (β-secretase enzyme, sBACE-Fc); assay type: biochemical; conditions: read-out: IC50 in TR-FRET assay
T1 construct: The soluble part of the human β-secretase (AA 1-AA 460) was cloned; made in house
Method: The enzyme used in the IGEN Cleavage-, Fluorescent-, TR-FRET- and BiaCore assays is described as follows:
The soluble part of the human β-secretase (AA 1-AA 460) was cloned into the ASP2-F10-1-IRES-GFP-neoK mammalian expression vector. The gene was fused to the Fc domain of IgG1 (affinity tag) and stably cloned into HEK 293 cells. Purified sBACE-Fc is stored in Tris buffer, pH 9.2 and has a purity of 95%.
Enzyme was diluted to 6 μg/mL and the substrate (Europium)[…](Qsy7) to 200 nM in reaction buffer (NaAcetate, chaps, triton x-100, EDTA pH 4.5). Compounds were diluted to the desired concentration in dimethyl sulfoxide (final dimethyl sulfoxide concentration in assay is 5%). […] Enzyme (9 μL) and 1 μL of compound in dimethyl sulfoxide was added to the plate, mixed and pre-incubated for 10 min. Substrate (10 μL) was added and the reaction proceeded in the dark for 15 min at RT. The reaction was stopped with the addition of 7 μL NaAcetate, pH 9. […] The dimethyl sulfoxide control defined the 100% activity level and 0% activity was defined by exclusion of the enzyme (using reaction buffer instead).

T1 sequence (P56817 22-460): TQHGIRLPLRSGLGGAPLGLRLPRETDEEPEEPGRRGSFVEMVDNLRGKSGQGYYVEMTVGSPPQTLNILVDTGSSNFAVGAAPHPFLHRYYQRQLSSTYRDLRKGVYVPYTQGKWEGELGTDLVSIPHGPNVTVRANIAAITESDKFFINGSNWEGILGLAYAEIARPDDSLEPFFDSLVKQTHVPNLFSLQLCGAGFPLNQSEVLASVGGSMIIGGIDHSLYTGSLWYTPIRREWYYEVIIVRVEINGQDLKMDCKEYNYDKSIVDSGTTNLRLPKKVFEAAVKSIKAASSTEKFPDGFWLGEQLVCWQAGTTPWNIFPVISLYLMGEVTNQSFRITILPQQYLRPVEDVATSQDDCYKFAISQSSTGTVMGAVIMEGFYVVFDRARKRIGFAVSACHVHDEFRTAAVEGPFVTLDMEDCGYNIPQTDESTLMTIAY

Row | IC50 | SMILES
1 | 272 nM | CS(=O)(=O)Oc1cccc(C2(c3cccc(-c4cncnc4)c3)N=C(N)N3CCCN=C32)c1 (stereo not shown) [Example 120, 3-[6-Amino-8-(3-pyrimidin-5-ylphenyl)-2,3,4,8-tetrahydroimidazo[1,5-a]pyrimidin-8-yl]phenyl methanesulfonate]
2 | 893 nM | CS(=O)(=O)Oc1cccc(C2(c3cccc(-c4cc(Cl)cnc4F)c3)N=C(N)N3CCCN=C32)c1 (stereo not shown) [Example 121, 3-{6-Amino-8-[3-(5-chloro-2-fluoropyridin-3-yl)phenyl]-2,3,4,8-tetrahydroimidazo[1,5-a]pyrimidin-8-yl}phenyl methanesulfonate]
3 | 69 nM | Cc1cc(C)cc(-c2cccc(C3(c4cccc(OS(C)(=O)=O)c4)N=C(N)N4CCCN=C43)c2)c1 (stereo not shown) [Example 122, 3-[6-Amino-8-(3′,5′-dimethylbiphenyl-3-yl)-2,3,4,8-tetrahydroimidazo[1,5-a]pyrimidin-8-yl]phenyl methanesulfonate]
4 | 106 nM | CCCS(=O)(=O)Oc1cccc(C2(c3cccc(-c4cc(Cl)cc(Cl)c4)c3)N=C(N)N3CCCN=C32)c1 (stereo not shown) [Example 123, 3-[6-Amino-8-(3′,5′-dichlorobiphenyl-3-yl)-2,3,4,8-tetrahydroimidazo[1,5-a]pyrimidin-8-yl]phenyl propane-1-sulfonate]
5 | 528 nM | CCCS(=O)(=O)Oc1cccc(C2(c3cccc(-c4cccc(OC)c4)c3)N=C(N)N3CCCN=C32)c1 (stereo not shown) [Example 124, 3-[6-Amino-8-(3′-methoxybiphenyl-3-yl)-2,3,4,8-tetrahydroimidazo[1,5-a]pyrimidin-8-yl]phenyl propane-1-sulfonate]
6 | 51 nM | CCCS(=O)(=O)Oc1cccc(C2(c3cccc(-c4cncnc4)c3)N=C(N)N3CCCN=C32)c1 (stereo not shown) [Example 125, 3-[6-Amino-8-(3-pyrimidin-5-ylphenyl)-2,3,4,8-tetrahydroimidazo[1,5-a]pyrimidin-8-yl]phenyl propane-1-sulfonate]
7 | 156 nM | NC1=NC(c2cccc(OS(=O)(=O)C3CC3)c2)(c2cccc(-c3cc(Cl)cc(Cl)c3)c2)C2=NCCCN12 (stereo not shown) [Example 126, 3-[6-Amino-8-(3′,5′-dichlorobiphenyl-3-yl)-2,3,4,8-tetrahydroimidazo[1,5-a]pyrimidin-8-yl]phenyl cyclopropanesulfonate]
8 | 177 nM | COc1cccc(-c2cccc(C3(c4cccc(OS(=O)(=O)C5CC5)c4)N=C(N)N4CCCN=C43)c2)c1 (stereo not shown) [Example 127, 3-[6-Amino-8-(3′-methoxybiphenyl-3-yl)-2,3,4,8-tetrahydroimidazo[1,5-a]pyrimidin-8-yl]phenyl cyclopropanesulfonate]
9 | 214 nM | NC1=NC(c2cccc(OS(=O)(=O)C(F)(F)F)c2)(c2cccc(-c3cc(Cl)cc(Cl)c3)c2)C2=NCCCN12 (stereo not shown) [Example 128, 3-[6-Amino-8-(3′,5′-dichlorobiphenyl-3-yl)-2,3,4,8-tetrahydroimidazo[1,5-a]pyrimidin-8-yl]phenyl trifluoromethanesulfonate]
10 | 464 nM | COc1cccc(-c2cccc(C3(c4cccc(OS(=O)(=O)C(F)(F)F)c4)N=C(N)N4CCCN=C43)c2)c1 (stereo not shown) [Example 129, 3-[6-Amino-8-(3′-methoxybiphenyl-3-yl)-2,3,4,8-tetrahydroimidazo[1,5-a]pyrimidin-8-yl]phenyl trifluoromethanesulfonate]
11 | 137 nM | NC1=NC(c2cccc(OS(=O)(=O)C(F)(F)F)c2)(c2cccc(-c3cccnc3)c2)C2=NCCCN12 (stereo not shown) [Example 130, 3-[6-Amino-8-(3-pyridin-3-ylphenyl)-2,3,4,8-tetrahydroimidazo[1,5-a]pyrimidin-8-yl]phenyl trifluoromethanesulfonate]
12 | 538 nM | NC1=NC(c2cccc(OS(=O)(=O)C(F)(F)F)c2)(c2cccc(-c3cc(Cl)cnc3F)c2)C2=NCCCN12 (stereo not shown) [Example 131, 3-{6-Amino-8-[3-(5-chloro-2-fluoropyridin-3-yl)phenyl]-2,3,4,8-tetrahydroimidazo[1,5-a]pyrimidin-8-yl}phenyl trifluoromethanesulfonate]
13 | 375 nM | NC1=NC(c2cccc(OS(=O)(=O)C(F)(F)F)c2)(c2cccc(-c3cncnc3)c2)C2=NCCCN12 (stereo not shown) [Example 132, 3-[6-Amino-8-(3-pyrimidin-5-ylphenyl)-2,3,4,8-tetrahydroimidazo[1,5-a]pyrimidin-8-yl]phenyl trifluoromethanesulfonate]
14 | 375 nM | COc1cc(OS(C)(=O)=O)cc(-c2cccc(C3(c4cccc(OC)c4)N=C(N)N4CCCN=C43)c2)c1 (stereo not shown) [Example 133, 3′-[6-Amino-8-(3-methoxyphenyl)-2,3,4,8-tetrahydroimidazo[1,5-a]pyrimidin-8-yl]-5-methoxybiphenyl-3-yl methanesulfonate]
15 | 224 nM | CN(C)C(=O)c1cccc(C2(c3cccc(-c4cccnc4F)c3)N=C(N)N3CC(F)(F)CN=C32)c1 (stereo not shown) [Example 145, 3-{6-Amino-3,3-difluoro-8-[3-(2-fluoropyridin-3-yl)phenyl]-2,3,4,8-tetrahydroimidazo[1,5-a]pyrimidin-8-yl}-N,N-dimethylbenzamide]
16 | 214 nM | CN(C)C(=O)c1ccc(C2(c3cccc(-c4cccnc4F)c3)N=C(N)N3CC(F)(F)CN=C32)cc1 (stereo not shown) [Example 146, 4-{6-Amino-3,3-difluoro-8-[3-(2-fluoropyridin-3-yl)phenyl]-2,3,4,8-tetrahydroimidazo[1,5-a]pyrimidin-8-yl}-N,N-dimethylbenzamide]
